Test results reported in patent US20240142474A1, “Opsins as Chemosensory Receptors and Related Methods” (The Regents of the University of California, priority 2021, published 2024).
Entries after “also recorded” stand apart in the source; their conditions may differ.

How the values were obtained:
[1] = biological target: T1, OPN3 (Mus musculus, UniProt Q9WUK7); test: TANGO assay (beta-arrestin recruitment, luciferase reporter) in HTLA cells, OPN3; format: cell-based; settings: 4 hours
T1 construct: expressed in transfected cells; host or cells: HTLA cells (HEK293 line with tTA-dependent luciferase reporter and beta-arrestin2-TEV fusion)
Excerpt: (§1) For example, in one implementation the chemosensory opsin activation detection element comprises a TANGO assay (Transcriptional Activation Following Arrestin Translocation), as known in the art, for example, as described by Kroeze et al., 2015. PRESTO-Tango as an open-source resource for interrogation the druggable human GPCRome. Nat Struct Mol Biol 22, 362-369. In the TANGO systems of the invention, a cell is engineered to express a chemosensory opsin in the form of a fusion protein, wherein the opsin fusion protein comprises an optional membrane trafficking signal (e.g. HA), an optional FLAG tag or like epitope to facilitate detection, and a transcriptional activator which induces the expression of a reporter gene, such as luciferase, wherein the transcriptional activator is joined to an intracellular portion of the opsin, for example, the […], by a cleavage sequence. The cells of the TANGO system are further engineered to express a second fusion protein comprising a beta-arrestin fused to a protease, for example, a TEV protease, wherein the protease is capable of cleaving the fusion protein at the cleavage site. The cells of the TANGO system are further engineered to express a reporter protein, e.g. luciferase, under the control of a transcriptional activator, for example, tetracycline-controlled transactivaor (tTA). Ligand binding to the opsin deployed in the TANGO system triggers a conformational change in the opsin that recruits the beta arrestin-protease fusion protein to the opsin, where proximity of the protease induces cleavage of the transcriptional activator, which trafficks to the nucleus and induces the expression of the reporter gene. The TANGO system advantageously allows direct quantification of opsin activation, independent of g protein activity.
(§2) Human transcriptomics data was mined to identify putative taste receptor proteins. […] However, the role of these opsins in taste perception has not been previously explored. TANGO detection elements employing each of these opsins, in both human and mouse isoforms, were created in HTLA cells (a HEK293 cell line stably expressing a tTA-dependent luciferase reporter and a β-arrestin2-TEV fusion gene), based on protocols in Kroeze et al., 2015. PRESTO-Tango as an open-source resource for interrogation of the druggable human GPCRome. Nat Struct Mol Biol 22, 362-369.
(§3) In the TANGO assay, the mouse opsin coding sequence with an N-terminal FLAG tag was synthesized. The construct was cloned into a TANGO vector (Addgene, Waterton MA) at the ClaI site (FLAG::opsin). The HTLA cells were transfected in a 6-well format with LIPOFECTAMINE 2000™ (Thermo Fisher Scientific, Inc, Waltham MA, USA) according to the manufacturer's instructions. 6-8 hours post transfection cells weret split 1:3 and the media was switched to DMEM+ 2.5% fetal bovine serum (Thermo Fisher Scientific Inc., Waltham MA, USA). Cells were allowed to grow for 48 hours before splitting the cells onto poly-L-lysine-coated 96-well clear, flat bottom white polystyrene plates in serum-free media. The next day, chemical solutions diluted in TANGO assay buffer (20 mM HEPES, 1× HBSS, pH 7.40) were added to the cells. After 4 hours, the medium and drug solutions were removed and replaced with […] per well of BRIGHTGLO™ reagent (Promega Corporation, Madison WI) diluted 20-fold with TANGO assay buffer. Plates were incubated for 20 minutes at room temperature in the dark before measuring luminescence with a plate reader (Molecular Devices, iD3). The normalized response was calculated using following formula: RLU (relative luminescence units)=test compound RLU−average vehicle control RLU.

[2] = system: OPN3 knockout mice; test: Mouse brief-access taste assay (lickometer), OPN3 knockout mice compared to wild type; format: in vivo; settings: water restricted
Method: Knockout mice were obtained for OPN1SW and OPN3. Two independent OPN3 knockout mice lines were tested for reaction to naringin by a mouse taste preference assay. A Lickometer device (MS-160, Di Log Instruments, Inc.,Tallahassee, FL, USA) was used to train mice and then measure their licking responses to different tastants in brief-access trials. On a given trial, each sipper tube was filled with a solution and made available to a mouse via a small port that opened to a metal/plexiglass chamber housing the animal. The mouse chamber of the lickometer was modified for these studies by adding a plexiglass barrier that restricted the free movement of animals to an approximate 10 by 15 cm area facing the fluid access port. A computer running software that communicated with the lickometer recorded tongue contacts with the metal tip of the sipper tube during licking and the time intervals (precision=1 ms) between consecutive licks (inter-lick intervals). The amount of time that the sipper tube was available through the access port could be programmed and was controlled by the opening of a normally closed, computer-actuated shutter. This feature facilitated presentation of solutions to a mouse for only a few seconds to support measurements of brief-access licking behavior. By indexing initial licking responses to stimuli over short periods, brief-access procedures intend to focus on oral sensory influences and avoid any post-ingestive effect. Groups of three to four mice were run in these studies at one time. Groups always included equal numbers of mutant and wild-type mice to control for temporal factors.
Training. Mice were restricted from drinking water for 20-22 hours prior to the onset of training. During training, experimentally naive mice learned to receive fluid in the lickometer over a 3-day period. On the first and second day of training, mice were given 30 minutes free access to a single sipper tube of water to familiarize them with accessing fluid in the lickometer device. Each 30 minute period began when the mouse made its first lick on the sipper tube; mice were allowed 30 minutes to make their first lick. On the third day of training, mice were presented with 10 second presentations (i.e., trials) of water to familiarize them with receiving and consuming fluid under a brief-access procedure in the lickometer. On each trial, the shutter that blocked access to the sipper tube was opened and mice were given 10 seconds to lick, and lick data were recorded by the lickometer computer. […]
Testing. […] For studies, individual Opn3KO, Opn1swKO, Opn4KO, Opn5KO and wild-type mice were evaluated for brief-access licking responses with different agonists. […]

[3] = biological target: T2, OPN3 (Homo sapiens, UniProt Q9H1Y3); test: Calcium flux GPCR activation assay with Fluo-8 dye, opsin-expressing HEK293T cells, OPN3; format: cell-based; settings: Fluo-8 calcium flux, data not shown
T2 construct: expressed in transfected cells; host or cells: HEK293T
Method: (§4) These foregoing TANTO results were further confirmed using a second, a calcium flux GPCR activation assay employing Fluo-8 dye, as follows. For this intracellular Ca^2+ measurement, opsin-expressing HEK293T cells were seeded onto 96-well plates (4×10^4 cells per well) in 100 μl of culture medium with reduced serum contents (0.5% of FBS) per well and incubated overnight under standard culture conditions. [Ca2+]i level was assessed the next day after stimulation with bitter compounds used at a different concentration with the SCREEN QUEST Fluo-8 No Wash Calcium Assay Kit (AAT Bioquest, Inc., Sunnyvale, CA, USA) according to the supplier's protocol. Calcium flux was monitored simultaneously by the change in fluorescence (Ex/Em=490/520 nm) following stimulation and with respect to the background fluorescence. [Ca^2+]i was monitored for a period of three minutes, starting before the addition of compounds to the wells and continuing during measurement of the fluorescent signal following cells' stimulation. The obtained fluorescence reads were normalized to the results obtained after stimulation of the cells with the compound solvent.

[4] = biological target: T3, OPN1SW (Mus musculus, UniProt P51491); test: TANGO assay (beta-arrestin recruitment, luciferase reporter) in HTLA cells, OPN1SW; format: cell-based; settings: 4 hours
T3 construct: expressed in transfected cells; host or cells: HTLA cells (HEK293 line with tTA-dependent luciferase reporter and beta-arrestin2-TEV fusion)
T3 sequence (P51491 1-346): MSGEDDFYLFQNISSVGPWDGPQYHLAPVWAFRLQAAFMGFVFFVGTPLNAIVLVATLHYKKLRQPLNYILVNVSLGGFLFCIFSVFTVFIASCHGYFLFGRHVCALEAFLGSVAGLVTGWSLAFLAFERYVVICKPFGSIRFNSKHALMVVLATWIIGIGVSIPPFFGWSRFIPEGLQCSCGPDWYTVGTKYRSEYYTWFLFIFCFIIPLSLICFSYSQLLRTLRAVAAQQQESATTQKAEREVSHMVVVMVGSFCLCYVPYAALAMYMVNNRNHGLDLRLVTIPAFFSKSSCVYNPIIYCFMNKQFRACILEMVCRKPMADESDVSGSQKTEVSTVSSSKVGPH
Excerpt: as §1, §2, §3

[5] = biological target: T4, OPN1SW (Homo sapiens, UniProt P03999); test: Calcium flux GPCR activation assay with Fluo-8 dye, opsin-expressing HEK293T cells, OPN1SW; format: cell-based; settings: Fluo-8 calcium flux, data not shown
T4 construct: expressed in transfected cells; host or cells: HEK293T
T4 sequence (P03999 1-345): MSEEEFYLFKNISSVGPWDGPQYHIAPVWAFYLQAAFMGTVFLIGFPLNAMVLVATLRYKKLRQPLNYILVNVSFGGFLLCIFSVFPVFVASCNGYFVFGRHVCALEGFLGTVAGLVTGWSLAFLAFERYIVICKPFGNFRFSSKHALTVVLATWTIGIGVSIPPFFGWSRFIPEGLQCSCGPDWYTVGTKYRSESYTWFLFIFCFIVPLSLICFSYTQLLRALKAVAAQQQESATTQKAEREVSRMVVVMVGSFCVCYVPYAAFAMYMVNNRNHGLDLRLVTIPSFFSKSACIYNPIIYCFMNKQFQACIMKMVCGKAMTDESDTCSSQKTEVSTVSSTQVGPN
Method: as §4

T1 sequence (Q9WUK7 whole entry, the tested form may be a part): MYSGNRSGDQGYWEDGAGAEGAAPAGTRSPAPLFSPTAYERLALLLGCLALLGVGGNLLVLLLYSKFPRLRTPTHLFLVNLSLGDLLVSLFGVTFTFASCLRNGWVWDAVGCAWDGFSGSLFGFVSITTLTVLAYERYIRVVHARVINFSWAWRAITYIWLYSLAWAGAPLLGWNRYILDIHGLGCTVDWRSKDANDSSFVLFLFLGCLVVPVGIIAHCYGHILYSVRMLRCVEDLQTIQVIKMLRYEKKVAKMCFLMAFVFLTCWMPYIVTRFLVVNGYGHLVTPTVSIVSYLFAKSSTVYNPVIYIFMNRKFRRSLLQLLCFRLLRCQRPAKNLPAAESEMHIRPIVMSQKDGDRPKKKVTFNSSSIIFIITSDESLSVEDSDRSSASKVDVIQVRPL
T2 sequence (Q9H1Y3 whole entry): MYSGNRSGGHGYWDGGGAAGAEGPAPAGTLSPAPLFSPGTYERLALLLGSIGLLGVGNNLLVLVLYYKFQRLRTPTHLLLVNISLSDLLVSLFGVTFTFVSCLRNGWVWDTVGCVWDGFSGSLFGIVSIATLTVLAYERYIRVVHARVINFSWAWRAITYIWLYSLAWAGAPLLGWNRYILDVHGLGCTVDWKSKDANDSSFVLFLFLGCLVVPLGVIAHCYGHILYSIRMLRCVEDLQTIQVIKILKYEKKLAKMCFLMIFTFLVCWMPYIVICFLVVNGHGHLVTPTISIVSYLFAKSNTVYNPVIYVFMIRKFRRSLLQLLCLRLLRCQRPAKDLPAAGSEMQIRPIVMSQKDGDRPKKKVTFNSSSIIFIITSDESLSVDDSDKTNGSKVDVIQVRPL

| Molecule | activation of OPN3, fold-change from baseline luciferase signal vs. log concentration of tastant [1] | activation of calcium dye OPN3 detection elements [3] | further results |
| --- | --- | --- | --- |
| Oc1cc(O)c2c(c1)O[C@H](c1cc(O)c(O)c(O)c1)[C@H](O)C2 [Epigallocatechin] | activated OPN3 |  | aversion to the bitter flavor (lick ratio), OPN3 knockout mice compared to wild type mice [2]: reduced aversion |
| N#C[C@H](O[C@@H]1O[C@H](CO[C@@H]2O[C@H](CO)[C@@H](O)[C@H](O)[C@H]2O)[C@@H](O)[C@H](O)[C@H]1O)c1ccccc1 [amygdalin] | activation of OPN3; also recorded: activated | significantly activated in a concentration dependent manner |  |
| OC[C@H]1O[C@@H](Oc2ccc(O)cc2)[C@H](O)[C@@H](O)[C@@H]1O [arbutin] | activation of OPN3; also recorded: activated | significantly activated in a concentration dependent manner |  |
| CC1=CC(=O)[N-]S(=O)(=O)O1.[K+] [asulfame potassium] | activation of OPN3 |  | activation of OPN1SW, fold-change from baseline luciferase signal vs. log concentration of tastant [4]: activation of OPN1SW |
| O=C(O[C@@H]1Cc2c(O)cc(O)cc2O[C@@H]1c1cc(O)c(O)c(O)c1)c1cc(O)c(O)c(O)c1 [epigallocatechin gallate] | activation of OPN3 |  |  |
| O=c1c(-c2ccc(O)cc2)coc2cc(O)cc(O)c12 [genistein] |  |  | activation of OPN1SW, fold-change from baseline luciferase signal vs. log concentration of tastant [4]: activated; activation of OPN1SW, fold-change from baseline luciferase signal vs. log concentration of tastant ([4]; listed as genestein): activation of OPN1SW; activation of calcium dye OPN1SW detection elements [5]: significantly activated in a concentration dependent manner |
| CC1(C)O[C@H]2CC(=O)OC[C@]23[C@H]2CC[C@@]4(C)[C@H](c5ccoc5)OC(=O)[C@H]5O[C@]54[C@]2(C)C(=O)C[C@@H]13 [limonin] |  |  | activation of OPN1SW, fold-change from baseline luciferase signal vs. log concentration of tastant [4]: activation of OPN1SW; also recorded: activated; activation of calcium dye OPN1SW detection elements [5]: significantly activated in a concentration dependent manner |
| O=c1c(O)c(-c2cc(O)c(O)c(O)c2)oc2cc(O)cc(O)c12 [myricetin] | activation of OPN3 |  |  |
| COc1ccc2c(c1OC)C(=O)O[C@@H]2[C@H]1c2c(cc3c(c2OC)OCO3)CCN1C [noscapine] | activation of OPN3; also recorded: activated | significantly activated in a concentration dependent manner |  |
| OC[C@H]1O[C@@H](Oc2ccccc2)[C@H](O)[C@@H](O)[C@@H]1O [phe-β-Glu, Phenyl-β-D-glucopyranoside] | activated | significantly activated in a concentration dependent manner | activation of OPN3, fold-change from baseline luciferase signal vs. log concentration of tastant ([1]; listed as Phenyl-β-D-glucopyranoside): activation of OPN3 |
| O=c1c(O)c(-c2ccc(O)c(O)c2)oc2cc(O)cc(O)c12 [quercetin] | activated OPN3; also recorded: activation of OPN3 |  | aversion to the bitter flavor (lick ratio), OPN3 knockout mice compared to wild type mice [2]: reduced aversion |
| catechin | activated OPN3; also recorded: activation of OPN3 |  | aversion to the bitter flavor (lick ratio), OPN3 knockout mice compared to wild type mice [2]: reduced aversion |
